Patent US9562085B2, “Antimicrobial peptide” (priority 2013, dated 2017)
Non-standard residues stand in square brackets, D forms with d. Residues, ends and D or L forms follow the SMILES beside them. *: point of attachment. X1 = NCCOCCOCCOCCOCCOCCOCCOCCOCCOCCOCCOC(=O)*; Myristoyl = CCCCCCCCCCCCCC(=O)*; Decanoyl = CCCCCCCCCC(=O)*; Hexanoyl = CCCCCC(=O)*; Propionyl = CCC(=O)*; Ahx = NCCCCCC(=O)O

system: S. aureus JAR; format: cell-based; conditions: JAR, 2 h
Protocol: S. aureus JAR is described in Campoccia et al. (Int. J. Artif. Organs, 2008 September; 31(9):841-7).
For the in vitro killing assay with P10 variants, S. aureus JAR ([…] CFU/ml) were incubated for 2 hours at 37° C. with various concentrations of the peptides in PBS or in PBS/human plasma (1/1, v/v). […] The LC99.9 is the average value of two independent experiments.

| Compound | LC99.9 (μM) (50% plasma) [µM] | LC99.9 (μM) (PBS) [µM] |
| --- | --- | --- |
| CC[C@H](C)[C@H](NC(=O)[C@H](CCCCN)NC(=O)[C@H](CCCCN)NC(=O)[C@H](Cc1ccc(O)cc1)NC(=O)[C@H](CCC(=O)O)NC(=O)[C@H](CCCNC(=N)N)NC(=O)[C@H](C)NC(=O)[C@H](CC(C)C)NC(C)=O)C(=O)N[C@H](C(=O)N[C@@H](CCC(=O)O)C(=O)N[C@@H](CCCCN)C(=O)N[C@@H](CC(C)C)C(=O)N[C@@H](CCCCN)C(=O)N[C@@H](CCCNC(=N)N)C(=O)N[C@@H](Cc1c[nH]c2ccccc12)C(=O)N[C@@H](CC(C)C)C(=O)N[C@@H](CCCNC(=N)N)C(=O)N[C@@H](CCC(N)=O)C(=O)N[C@H](C(=O)N[C@@H](CC(C)C)C(=O)N[C@@H](CCCNC(=N)N)C(=O)N[C@H](C(=O)N[C@@H](CC(C)C)C(=O)N[C@@H](CCCNC(=N)N)C(=O)NCCCCCC(N)=O)[C@@H](C)O)C(C)C)C(C)C [Peptide 1302-6, JLAREYKKIVEKLKRWLRQVLRTLRZB] (Ac-LAREYKKIVEKLKRWLRQVLRTLR[Ahx]-NH2) | 38.4 | 0.6 |
| CC[C@H](C)[C@H](NC(=O)[C@H](CCCCN)NC(=O)[C@H](CCCCN)NC(=O)[C@H](Cc1ccc(O)cc1)NC(=O)[C@H](CCC(=O)O)NC(=O)[C@H](CCCNC(=N)N)NC(=O)[C@H](C)NC(=O)[C@H](CC(C)C)NC(=O)OCCOCCOCCOCCOCCOCCOCCOCCOCCOCCOCCN)C(=O)N[C@H](C(=O)N[C@@H](CCC(=O)O)C(=O)N[C@@H](CCCCN)C(=O)N[C@@H](CC(C)C)C(=O)N[C@@H](CCCCN)C(=O)N[C@@H](CCCNC(=N)N)C(=O)N[C@@H](Cc1c[nH]c2ccccc12)C(=O)N[C@@H](CC(C)C)C(=O)N[C@@H](CCCNC(=N)N)C(=O)N[C@@H](CCC(N)=O)C(=O)N[C@H](C(=O)N[C@@H](CC(C)C)C(=O)N[C@@H](CCCNC(=N)N)C(=O)N[C@H](C(=O)N[C@@H](CC(C)C)C(=O)N[C@@H](CCCNC(=N)N)C(N)=O)[C@@H](C)O)C(C)C)C(C)C [Peptide 1302-7, oLAREYKKIVEKLKRWLRQVLRTLRB] (X1-LAREYKKIVEKLKRWLRQVLRTLR-NH2; N-terminus assumed) | 102.4 | 1.6 |
| CCCCCC(=O)N[C@@H](CC(C)C)C(=O)N[C@@H](C)C(=O)N[C@@H](CCCNC(=N)N)C(=O)N[C@@H](CCC(=O)O)C(=O)N[C@@H](Cc1ccc(O)cc1)C(=O)N[C@@H](CCCCN)C(=O)N[C@@H](CCCCN)C(=O)N[C@H](C(=O)N[C@H](C(=O)N[C@@H](CCC(=O)O)C(=O)N[C@@H](CCCCN)C(=O)N[C@@H](CC(C)C)C(=O)N[C@@H](CCCCN)C(=O)N[C@@H](CCCNC(=N)N)C(=O)N[C@@H](Cc1c[nH]c2ccccc12)C(=O)N[C@@H](CC(C)C)C(=O)N[C@@H](CCCNC(=N)N)C(=O)N[C@@H](CCC(N)=O)C(=O)N[C@H](C(=O)N[C@@H](CC(C)C)C(=O)N[C@@H](CCCNC(=N)N)C(=O)N[C@H](C(=O)N[C@@H](CC(C)C)C(=O)N[C@@H](CCCNC(=N)N)C(N)=O)[C@@H](C)O)C(C)C)C(C)C)[C@@H](C)CC [Peptide 1302-8, bLAREYKKIVEKLKRWLRQVLRTLRB] (Hexanoyl-LAREYKKIVEKLKRWLRQVLRTLR-NH2) | 102.4 | 1.2 |
| CCCCCCCCCC(=O)N[C@@H](CC(C)C)C(=O)N[C@@H](C)C(=O)N[C@@H](CCCNC(=N)N)C(=O)N[C@@H](CCC(=O)O)C(=O)N[C@@H](Cc1ccc(O)cc1)C(=O)N[C@@H](CCCCN)C(=O)N[C@@H](CCCCN)C(=O)N[C@H](C(=O)N[C@H](C(=O)N[C@@H](CCC(=O)O)C(=O)N[C@@H](CCCCN)C(=O)N[C@@H](CC(C)C)C(=O)N[C@@H](CCCCN)C(=O)N[C@@H](CCCNC(=N)N)C(=O)N[C@@H](Cc1c[nH]c2ccccc12)C(=O)N[C@@H](CC(C)C)C(=O)N[C@@H](CCCNC(=N)N)C(=O)N[C@@H](CCC(N)=O)C(=O)N[C@H](C(=O)N[C@@H](CC(C)C)C(=O)N[C@@H](CCCNC(=N)N)C(=O)N[C@H](C(=O)N[C@@H](CC(C)C)C(=O)N[C@@H](CCCNC(=N)N)C(N)=O)[C@@H](C)O)C(C)C)C(C)C)[C@@H](C)CC [Peptide 1302-9, jLAREYKKIVEKLKRWLRQVLRTLRB] (Decanoyl-LAREYKKIVEKLKRWLRQVLRTLR-NH2) | >102.4 | 1.6 |
| CCCCCCCCCCCCCC(=O)N[C@@H](CC(C)C)C(=O)N[C@@H](C)C(=O)N[C@@H](CCCNC(=N)N)C(=O)N[C@@H](CCC(=O)O)C(=O)N[C@@H](Cc1ccc(O)cc1)C(=O)N[C@@H](CCCCN)C(=O)N[C@@H](CCCCN)C(=O)N[C@H](C(=O)N[C@H](C(=O)N[C@@H](CCC(=O)O)C(=O)N[C@@H](CCCCN)C(=O)N[C@@H](CC(C)C)C(=O)N[C@@H](CCCCN)C(=O)N[C@@H](CCCNC(=N)N)C(=O)N[C@@H](Cc1c[nH]c2ccccc12)C(=O)N[C@@H](CC(C)C)C(=O)N[C@@H](CCCNC(=N)N)C(=O)N[C@@H](CCC(N)=O)C(=O)N[C@H](C(=O)N[C@@H](CC(C)C)C(=O)N[C@@H](CCCNC(=N)N)C(=O)N[C@H](C(=O)N[C@@H](CC(C)C)C(=O)N[C@@H](CCCNC(=N)N)C(N)=O)[C@@H](C)O)C(C)C)C(C)C)[C@@H](C)CC [Peptide 1302-10, uLAREYKKIVEKLKRWLRQVLRTLRB] (Myristoyl-LAREYKKIVEKLKRWLRQVLRTLR-NH2) | 102.4 | 2.0 |
| CC[C@@H](C)[C@@H](NC(=O)[C@@H](CCCCN)NC(=O)[C@@H](CCCCN)NC(=O)[C@@H](Cc1ccc(O)cc1)NC(=O)[C@@H](CCC(=O)O)NC(=O)[C@@H](CCCNC(=N)N)NC(=O)[C@@H](C)NC(=O)[C@@H](CC(C)C)NC(C)=O)C(=O)N[C@@H](C(=O)N[C@H](CCC(=O)O)C(=O)N[C@H](CCCCN)C(=O)N[C@H](CC(C)C)C(=O)N[C@H](CCCCN)C(=O)N[C@H](CCCNC(=N)N)C(=O)N[C@H](Cc1c[nH]c2ccccc12)C(=O)N[C@H](CC(C)C)C(=O)N[C@H](CCCNC(=N)N)C(=O)N[C@H](CCC(N)=O)C(=O)N[C@@H](C(=O)N[C@H](CC(C)C)C(=O)N[C@H](CCCNC(=N)N)C(=O)N[C@@H](C(=O)N[C@H](CC(C)C)C(=O)N[C@H](CCCNC(=N)N)C(N)=O)[C@H](C)O)C(C)C)C(C)C [Peptide 1313-07, JlareykkiveklkrwlrqvlrtlrB] (Ac-[dL][dA][dR][dE][dY][dK][dK][dI][dV][dE][dK][dL][dK][dR][dW][dL][dR][dQ][dV][dL][dR][dT][dL][dR]-NH2) | 25.6 | 1.6 |
| Ac-AAREYKKIVEKLKRWLRQVLRTLR-NH2 [Peptide 1302-19, JAAREYKKIVEKLKRWLRQVLRTLRB] | 76.8 | 1.6 |
| Ac-EYKKIVEKLKRWLRQVLR-NH2 [Peptide 1302-61, JEYKKIVEKLKRWLRQVLRB] | 102.4 | 2.4 |
| Ac-IAREYKKIVEKLKRWLRQVLRTLR-NH2 [Peptide 1302-17, JIAREYKKIVEKLKRWLRQVLRTLRB] | 102.4 | 1.6 |
| Ac-KKIVEKLKRWLRQ-NH2 [Peptide 1302-63, JKKIVEKLKRWLRQB] | 102.4 | >3.2 |
| Ac-LAHEYKKIVEKLKRWLRQVLRTLR-NH2 [Peptide 1302-24, JLAHEYKKIVEKLKRWLRQVLRTLRB] | 102.4 | 1.6 |
| Ac-LAKEYKKIVEKLKRWLRQVLRTLR-NH2 [Peptide 1302-23, JLAKEYKKIVEKLKRWLRQVLRTLRB] | 102.4 | 1.6 |
| Ac-LAREYHKIVEKLKRWLRQVLRTLR-NH2 [Peptide 1302-28, JLAREYHKIVEKLKRWLRQVLRTLRB] | 102.4 | 1.2 |
| Ac-LAREYKHIVEKLKRWLRQVLRTLR-NH2 [Peptide 1302-30, JLAREYKHIVEKLKRWLRQVLRTLRB] | 102.4 | 3.2 |
| Ac-LAREYKKIVEKAKRWLRQVLRTLR-NH2 [Peptide 1302-36, JLAREYKKIVEKAKRWLRQVLRTLRB] | 76.8 | 3.2 |
| Ac-LAREYKKIVEKIKRWLRQVLRTLR-NH2 [Peptide 1302-33, JLAREYKKIVEKIKRWLRQVLRTLRB] | 102.4 | 3.2 |
| Ac-LAREYKKIVEKLHRWLRQVLRTLR-NH2 [Peptide 1302-37, JLAREYKKIVEKLHRWLRQVLRTLRB] | 102.4 | 3.2 |

same assay, conditions: S. aureus JAR, 2 hours at 37° C. in PBS/human plasma (1/1, v/v); concentration killing 99.9% of the bacteria; average of two experiments

| Compound | LC99.9 (μM) (50% plasma) [µM] |
| --- | --- |
| CCC(=O)N[C@@H](CC(C)C)C(=O)N[C@@H](C)C(=O)N[C@@H](CCCNC(=N)N)C(=O)N[C@@H](CCC(=O)O)C(=O)N[C@@H](Cc1ccc(O)cc1)C(=O)N[C@@H](CCCCN)C(=O)N[C@@H](CCCCN)C(=O)N[C@H](C(=O)N[C@H](C(=O)N[C@@H](CCC(=O)O)C(=O)N[C@@H](CCCCN)C(=O)N[C@@H](CC(C)C)C(=O)N[C@@H](CCCCN)C(=O)N[C@@H](CCCNC(=N)N)C(=O)N[C@@H](Cc1c[nH]c2ccccc12)C(=O)N[C@@H](CC(C)C)C(=O)N[C@@H](CCCNC(=N)N)C(=O)N[C@@H](CCC(N)=O)C(=O)N[C@H](C(=O)N[C@@H](CC(C)C)C(=O)N[C@@H](CCCNC(=N)N)C(=O)N[C@H](C(=O)N[C@@H](CC(C)C)C(=O)N[C@@H](CCCNC(=N)N)C(N)=O)[C@@H](C)O)C(C)C)C(C)C)[C@@H](C)CC [Peptide 1302-11, ULAREYKKIVEKLKRWLRQVLRTLRB] (Propionyl-LAREYKKIVEKLKRWLRQVLRTLR-NH2) | 102.4 |

same assay, conditions: S. aureus JAR, 2 hours at 37° C. in PBS; concentration killing 99.9% of the bacteria; average of two experiments

| Compound | LC99.9 (μM) (PBS) [µM] |
| --- | --- |
| CCC(=O)N[C@@H](CC(C)C)C(=O)N[C@@H](C)C(=O)N[C@@H](CCCNC(=N)N)C(=O)N[C@@H](CCC(=O)O)C(=O)N[C@@H](Cc1ccc(O)cc1)C(=O)N[C@@H](CCCCN)C(=O)N[C@@H](CCCCN)C(=O)N[C@H](C(=O)N[C@H](C(=O)N[C@@H](CCC(=O)O)C(=O)N[C@@H](CCCCN)C(=O)N[C@@H](CC(C)C)C(=O)N[C@@H](CCCCN)C(=O)N[C@@H](CCCNC(=N)N)C(=O)N[C@@H](Cc1c[nH]c2ccccc12)C(=O)N[C@@H](CC(C)C)C(=O)N[C@@H](CCCNC(=N)N)C(=O)N[C@@H](CCC(N)=O)C(=O)N[C@H](C(=O)N[C@@H](CC(C)C)C(=O)N[C@@H](CCCNC(=N)N)C(=O)N[C@H](C(=O)N[C@@H](CC(C)C)C(=O)N[C@@H](CCCNC(=N)N)C(N)=O)[C@@H](C)O)C(C)C)C(C)C)[C@@H](C)CC [Peptide 1302-11, ULAREYKKIVEKLKRWLRQVLRTLRB] (Propionyl-LAREYKKIVEKLKRWLRQVLRTLR-NH2) | 1.6 |

same assay, conditions: statements referring to Tables 2-6

| Compound | antimicrobial activity, in words |
| --- | --- |
| CC[C@@H](C)[C@@H](NC(=O)[C@@H](CCCCN)NC(=O)[C@@H](CCCCN)NC(=O)[C@@H](Cc1ccc(O)cc1)NC(=O)[C@@H](CCC(=O)O)NC(=O)[C@@H](CCCNC(=N)N)NC(=O)[C@@H](C)NC(=O)[C@@H](CC(C)C)NC(C)=O)C(=O)N[C@@H](C(=O)N[C@H](CCC(=O)O)C(=O)N[C@H](CCCCN)C(=O)N[C@H](CC(C)C)C(=O)N[C@H](CCCCN)C(=O)N[C@H](CCCNC(=N)N)C(=O)N[C@H](Cc1c[nH]c2ccccc12)C(=O)N[C@H](CC(C)C)C(=O)N[C@H](CCCNC(=N)N)C(=O)N[C@H](CCC(N)=O)C(=O)N[C@@H](C(=O)N[C@H](CC(C)C)C(=O)N[C@H](CCCNC(=N)N)C(=O)N[C@@H](C(=O)N[C@H](CC(C)C)C(=O)N[C@H](CCCNC(=N)N)C(N)=O)[C@H](C)O)C(C)C)C(C)C [Peptide 1313-07, JlareykkiveklkrwlrqvlrtlrB] (Ac-[dL][dA][dR][dE][dY][dK][dK][dI][dV][dE][dK][dL][dK][dR][dW][dL][dR][dQ][dV][dL][dR][dT][dL][dR]-NH2) | possesses antimicrobial activity |
